Data taken from patent publication US20210169958A1, “Preparation Method of Agrocybe Aegerita Extract and its use in Preparing Medicine for Lowering Uric Acid” (Guangdong Institute of Microbiology (Guang Dong Detection …, priority 2018, published 2021).

Key:
hyperuricemia mice [1] = assay: Serum uric acid level in potassium oxonate + hypoxanthine hyperuricemia mice; format: in vivo, Kunming mice; conditions: 7 days, normal 196, model 313 μmol/L
Procedure: (§1) Except for the normal control group by intraperitoneal injection and intragastric administration of distilled water, the other groups were intraperitoneally injected with oxazine potassium salt at a dose of 100 mg/kg/d, and simultaneously intragastrically with a dose of 600 mg/kg/d hypoxanthine for modeling. […] Low, middle, and high-dose Agrocybe aegerita water extract administration group (Agrocybe aegerita water extract, AAW) were respectively 50, 100, 200 mg/kg concentration of the Agrocybe aegerita water extract prepared in Example 2 100 mg/kg/d for intragastric administration. […] The blood samples were separated and the serum was stored at −20° C. The organs of the mice were removed, including the liver, spleen, and kidneys, and washed with physiological saline solution. Then blot it dry with an ordinary filter and weigh it. […] (8) Statistical analysis is performed using the professional data processing program SPSS (Release 11.5, SPSS Inc., 2001). All data are expressed as mean±standard error (S.D.) and analyzed by one-way analysis of variance (ANOVA), and group means were compared by two-tailed Student's t test. Differences with statistical significance (P<0.05 or P<0.01) are indicated by the following symbols: There is a differences from the normal control group: *P<0.05, **P<0.01. […]

hyperuricemia mice [2] = assay: Urine uric acid level in hyperuricemia mice; format: in vivo, Kunming mice; conditions: normal 605, model 293 μmol/L
Procedure: as §1

[3] = tested on: OAT1 (organic anion transporter 1); assay: Western blot of kidney samples, OAT1 protein expression; format: in vivo, mouse; conditions: compared with the model group, each dose group
Procedure: Except for the normal control group by intraperitoneal injection and intragastric administration of distilled water, the other groups were intraperitoneally injected with oxazine potassium salt at a dose of 100 mg/kg/d, and simultaneously intragastrically with a dose of 600 mg/kg/d hypoxanthine for modeling. […] Low, middle, and high-dose Agrocybe aegerita water extract administration group (Agrocybe aegerita water extract, AAW) were respectively 50, 100, 200 mg/kg concentration of the Agrocybe aegerita water extract prepared in Example 2 100 mg/kg/d for intragastric administration. The normal control group and the hyperuricemia model control group were gavage with the same volume of pure water for 7 consecutive days, and in the 1, 3, 5, and 7 days to weigh the mice. […]
(7) Western blot analysis of kidney samples. Using GAPDH (glyceraldehyde-3-phosphate dehydrogenase) as an internal control, the expression of proteins including URAT1 (urate transporter 1) and OAT1 (organic anion transporter 1) were detected.
(§2) (8) Statistical analysis is performed using the professional data processing program SPSS (Release 11.5, SPSS Inc., 2001). All data are expressed as mean±standard error (S.D.) and analyzed by one-way analysis of variance (ANOVA), and group means were compared by two-tailed Student's t test. […]

hyperuricemia mice [4] = assay: Kidney (renal) coefficient and kidney observation of mice; format: in vivo, Kunming mice
Procedure: (§3) Except for the normal control group by intraperitoneal injection and intragastric administration of distilled water, the other groups were intraperitoneally injected with oxazine potassium salt at a dose of 100 mg/kg/d, and simultaneously intragastrically with a dose of 600 mg/kg/d hypoxanthine for modeling. […] Low, middle, and high-dose Agrocybe aegerita water extract administration group (Agrocybe aegerita water extract, AAW) were respectively 50, 100, 200 mg/kg concentration of the Agrocybe aegerita water extract prepared in Example 2 100 mg/kg/d for intragastric administration. […] The blood samples were separated and the serum was stored at −20° C. The organs of the mice were removed, including the liver, spleen, and kidneys, and washed with physiological saline solution. Then blot it dry with an ordinary filter and weigh it. […] The supernatant was retained for XOD activity analysis and Western blot analysis. (8) Statistical analysis is performed using the professional data processing program SPSS (Release 11.5, SPSS Inc., 2001). All data are expressed as mean±standard error (S.D.) and analyzed by one-way analysis of variance (ANOVA), and group means were compared by two-tailed Student's t test. Differences with statistical significance (P<0.05 or P<0.01) are indicated by the following symbols: There is a differences from the normal control group: *P<0.05, **P<0.01. […]

URAT1 = URAT1 expression in mouse kidney by ELISA kit; format: in vivo; conditions: allopurinol group; normal 96.95, model 104.85 pg/mL
Procedure: Except for the normal control group by intraperitoneal injection and intragastric administration of distilled water, the other groups were intraperitoneally injected with oxazine potassium salt at a dose of 100 mg/kg/d, and simultaneously intragastrically with a dose of 600 mg/kg/d hypoxanthine for modeling. […] Low, middle, and high-dose Agrocybe aegerita water extract administration group (Agrocybe aegerita water extract, AAW) were respectively 50, 100, 200 mg/kg concentration of the Agrocybe aegerita water extract prepared in Example 2 100 mg/kg/d for intragastric administration. The normal control group and the hyperuricemia model control group were gavage with the same volume of pure water for 7 consecutive days, and in the 1, 3, 5, and 7 days to weigh the mice.
(4) Take the organs obtained in step (2) and calculate the organ coefficients (liver coefficient, spleen coefficient and kidney coefficient) by dividing […]. […]
as §2

[5] = Body weight change of mice; format: in vivo, Kunming mice; conditions: compared with normal group, 7 days, all doses
Procedure: Except for the normal control group by intraperitoneal injection and intragastric administration of distilled water, the other groups were intraperitoneally injected with oxazine potassium salt at a dose of 100 mg/kg/d, and simultaneously intragastrically with a dose of 600 mg/kg/d hypoxanthine for modeling. […] Low, middle, and high-dose Agrocybe aegerita water extract administration group (Agrocybe aegerita water extract, AAW) were respectively 50, 100, 200 mg/kg concentration of the Agrocybe aegerita water extract prepared in Example 2 100 mg/kg/d for intragastric administration. […] (8) Statistical analysis is performed using the professional data processing program SPSS (Release 11.5, SPSS Inc., 2001). All data are expressed as mean±standard error (S.D.) and analyzed by one-way analysis of variance (ANOVA), and group means were compared by two-tailed Student's t test. Differences with statistical significance (P<0.05 or P<0.01) are indicated by the following symbols: There is a differences from the normal control group: *P<0.05, **P<0.01. There is a difference between the control and PO and HX-induced hyperuricemia model group, #P<0.05, ##P<0.01.

hyperuricemia mice [6] = assay: Serum urea nitrogen (BUN) level, renal function of hyperuricemia mice; format: in vivo, Kunming mice; conditions: allopurinol group; normal 4.47, model 5.96 mmol/L
Procedure: as §1

hyperuricemia mice [7] = assay: Liver coefficient of mice; format: in vivo, Kunming mice; conditions: all treatment groups
Procedure: as §3

| Compound | blood uric acid of hyperuricemia mice (hyperuricemia mice [1]; 7.8 mg/kg intragastric) [µmol] | urine uric acid level (hyperuricemia mice [2]; 7.8 mg/kg) [µmol/L] | OAT1 protein expression (Western blot, gray analysis) [3] | renal coefficient (hyperuricemia mice [4]; allopurinol group, normal 1.25%) [%] | kidney observation (hyperuricemia mice [4]; not observed in other groups) | URAT1 protein expression level (ELISA, kidney) (URAT1) [pg/mL] | blood uric acid of hyperuricemia mice (hyperuricemia mice [1]; 5 mg/kg intragastric) [µmol] | effect on body weight [5] | serum BUN (hyperuricemia mice [6]) [mmol/L] | urine uric acid level (hyperuricemia mice [2]; allopurinol group (5 mg/kg per method)) [µmol/L] | liver coefficient, effect on liver function (hyperuricemia mice [7]) |
| --- | --- | --- | --- | --- | --- | --- | --- | --- | --- | --- | --- |
| CCc1oc2ccccc2c1C(=O)c1cc(Br)c(O)c(Br)c1 [benzbromarone] | 206 | 408 | increase the expression of OAT1 |  |  |  |  |  |  |  |  |
| Oc1ncnc2[nH]ncc12 [allopurinol] |  |  |  | 1.42 | vesicular nephritis was observed | 151.96 | 105 | inhibited the weight increase of mice | 4.74 | 267 | little effect on liver function |
